Measurements as given in ChEMBL document CHEMBL4308877, “Thiazole, thio and semicarbazone derivatives against tropical infective diseases: Chagas disease, human African trypanosomiasis (HAT), leishmaniasis, and malaria” (Eur J Med Chem, 2019).
In brackets after ≈: the same amount, converted by molar mass. Each block holds one compound with its values, some of them ahead of it.

Key:
[1] = test system: Trypanosoma brucei brucei; experiment: Anti-parasitic activity against Trypanosoma brucei brucei 427 after 72 hrs by Alamar Blue assay; format: functional, organism-based; details: Trypanosoma brucei, 427, 72 h
[2] = Selectivity index, ratio of LC50 for salina eggs to IC50 for Trypanosoma brucei brucei 427; format: toxicity; details: Artemia salina (brine shrimp), read-out: Ratio IC50
Trypanosoma cruzi [3] = experiment: Anti-parasitic activity against trypomastigote stage of Trypanosoma cruzi Y infected in monkey LLC-MK2 cells after 24 hrs; format: functional, organism-based; details: LLC-MK2, 24 h
Trypanosoma cruzi [4] = experiment: Anti-parasitic activity against amastigote stage of Trypanosoma cruzi Y infected in monkey LLC-MK2 cells after 96 hrs; format: functional, organism-based; details: LLC-MK2, 96 h
Trypanosoma brucei [5] = experiment: Anti-parasitic activity against wild type Trypanosoma brucei; format: functional, organism-based
[6] = Selectivity index, ratio of IC50 for human SK-N-SH cells to IC50 for wild type Trypanosoma brucei; format: toxicity; details: read-out: Ratio IC50
Trypanosoma brucei [7] = experiment: Anti-parasitic activity against type 1 nitroreductase over-expressing Trypanosoma brucei; format: functional, organism-based
[8] = Selectivity index, ratio of IC50 for human THP1 cells to IC50 for Trypanosoma brucei overexpressing the type 1 nitroreductase; format: toxicity; details: read-out: Ratio IC50
Leishmania panamensis = experiment: Anti-parasitic activity against amastigote stage of EGFP-fused Leishmania panamensis MHOM/CO/87/UA140 infected in human U-937 cells after 72 hrs by flow cytometric analysis; format: functional, organism-based; details: MHOM/CO/87/UA140, U-937, 72 h
[9] = Selectivity index, ratio of EC50 for human U-937 cells to IC50 for amastigote stage of EGFP-fused Leishmania panamensis MHOM/CO/87/UA140; format: toxicity; details: read-out: Selectivity Index
A549 = experiment: Cytotoxicity against human A549 cells assessed as reduction in cell viability after 24 hrs by MTT assay; format: functional, cell-based; details: A549, 24 h
C6 = experiment: Cytotoxicity against rat C6 cells assessed as reduction in cell viability after 24 hrs by MTT assay; format: functional, cell-based; details: C6, 24 h
Trypanosoma cruzi [10] = experiment: Anti-parasitic activity against epimastigote stage of Trypanosoma cruzi Tulahuen 2 measured at day 5; format: functional, organism-based; details: Tulahuen 2, 120 h
Trypanosoma cruzi [11] = experiment: Anti-parasitic activity against amastigote stage of Trypanosoma cruzi Sylvio X-10 infected in African green monkey Vero cells after 72 hrs by Giemsa-staining based assay; format: functional, organism-based; details: Sylvio X-10, Vero
[12] = biological target: Cruzipain (Trypanosoma cruzi) (UniProt P25779); experiment: Inhibition of recombinant Trypanosoma cruzi CL epimastigotes form cruzain at 100 uM using Z-FR-AMC as substrate preincubated for 10 mins followed by substrate addition measured after 5 mins by fluorimetric analysis relative to control
Cruzipain (Trypanosoma cruzi), sequence (P25779 123-467 limits assumed): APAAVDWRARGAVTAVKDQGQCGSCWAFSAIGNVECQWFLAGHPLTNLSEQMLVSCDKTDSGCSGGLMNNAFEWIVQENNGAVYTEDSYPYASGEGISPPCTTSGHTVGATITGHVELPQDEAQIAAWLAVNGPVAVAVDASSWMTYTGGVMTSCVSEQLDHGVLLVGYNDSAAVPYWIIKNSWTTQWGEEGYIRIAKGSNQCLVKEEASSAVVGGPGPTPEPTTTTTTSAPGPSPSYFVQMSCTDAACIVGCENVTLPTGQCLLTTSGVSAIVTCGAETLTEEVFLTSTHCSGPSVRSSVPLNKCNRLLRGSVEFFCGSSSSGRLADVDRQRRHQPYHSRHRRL

[13] = Selectivity index, ratio of cytotoxic activity for monkey LLC-MK2 cells to IC50 for trypomastigote stage of Trypanosoma cruzi Y; format: toxicity
[14] = test system: Trypanosoma brucei brucei; experiment: Anti-parasitic activity against Trypanosoma brucei brucei AnTat1.1E; format: functional, organism-based
[15] = Selectivity index, ratio of IC50 for HEK293T cells to IC50 for Trypanosoma brucei brucei AnTat1.1E; format: toxicity; details: human

- EC50 (Leishmania panamensis): 5.4 µM
Compound: NC(=O)N/N=C1\CC(c2ccccc2)Sc2ccccc21 (configuration not stated)
- selectivity ratio [9]: 18.6

- IC50 (Trypanosoma cruzi [10]): 3.1 µM
- EC50 (Trypanosoma cruzi [11]): 0.7 µM
Compound: C=CCn1c(C(=O)N2CCN(C/C=C/c3ccccc3)CC2)cs\c1=N/N=C/C=C/c1ccco1

- EC50 (Leishmania panamensis): 16.4 µM
Compound: O=C(N/N=C1\CC(c2ccccc2)Sc2ccccc21)c1ccncc1 (configuration not stated)
- selectivity ratio [9]: 33.9

- IC50 (Trypanosoma cruzi [3]): 4 µM
Compound: CCC1S/C(=N/N=C(/COc2ccccc2)c2ccc(Br)cc2)NC1=O (configuration not stated)
- selectivity ratio [13]: > 57.9

- IC50 [14]: 0.937 µM
Compound: CCOC(=O)c1ccc(-n2sc3ccccc3c2=O)cc1
- selectivity ratio [15]: > 267

Continued, compound first:

Compound: S=C(NN=C(c1ccccc1)c1ccccc1)Nc1ccccc1
- IC50 [1]: 8.48 µM
- selectivity ratio [2]: 43.2

Compound: N/C(S)=N/N=C/c1ccc([N+](=O)[O-])cc1
- EC50 (Trypanosoma cruzi [3]): 1.43 µM
- IC50 (Trypanosoma cruzi [4]): 3.23 µM

Compound: CCCC(=O)Nc1ncc([N+](=O)[O-])s1
- IC50 (Trypanosoma brucei [5]): 6.47 µM
- selectivity ratio [6]: > 15
- IC50 (Trypanosoma brucei [7]): 0.64 µM
- selectivity ratio [8]: > 156

Compound: Cc1c(CO)c(CO)c2n1[C@@H](c1ccccc1)SC2
- IC50 (A549): 12 µg/mL (≈ 43.6 µM)
- IC50 (C6): 3.83 µg/mL (≈ 13.9 µM)

Compound: CC(C)c1ccc(/C=N/NC(N)=S)cc1
- inhibition [12]: 70%

Compound: Nc1ccccc1/C(=N\NC(=S)Nc1ccccc1)c1ccccc1
- IC50 [1]: 2.83 µM
- selectivity ratio [2]: 15

Compound: CCCCC(=O)Nc1ncc([N+](=O)[O-])s1
- IC50 (Trypanosoma brucei [5]): 4.32 µM
- selectivity ratio [6]: > 23
- IC50 (Trypanosoma brucei [7]): 0.57 µM
- selectivity ratio [8]: > 175
